Read-outs that look alike come from different tables or passages of the source.
Experiments:
Assay type in all cases: in vivo
[1] = tested on: Beet Armyworm (BAW) (Spodoptera exigua); assay: Bioassay on Beet Armyworm (BAW), 128-well diet tray assay; conditions: 120 h
Experimental: Certain molecules disclosed in this document were tested against BAW and CEW using procedures described in the following examples. In the reporting of the results, the “Table 3: BAW & CEW Rating Table” was used (See Table Section).
Bioassays on BAW (Spodoptera exigua)
Bioassays on BAW were conducted using a 128-well diet tray assay. […] Trays were covered with a clear self-adhesive cover, and held at 25° C., 14:10 light-dark for five days. Percent mortality was recorded for the larvae in each well; activity in the eight wells was then averaged. The results are indicated in the table entitled “Table 5: BAW, CEW, GPA, Scale and WF Results” (See Table Section).

[2] = tested on: Green Peach Aphid (GPA) (Myzus persicae); assay: Bioassay on Green Peach Aphid (GPA), foliar spray on cabbage seedlings; conditions: 72 h, 200 ppm foliar spray on cabbage seedlings, graded after three days, Abbott corrected % control, read-out: GPA @ 200 ppm, % Control (or Mortality) rating
Experimental: Certain molecules disclosed in this document were tested against GPA using procedures described in the following example. In the reporting of the results, the “Table 4: GPA, Scale and WF Rating Table” was used (See Table Section).
Cabbage seedlings grown in 3-inch pots, with 2-3 small (3-5 cm) true leaves, were used as test substrate. The seedlings were infested with 20-50 GPA (wingless adult and nymph stages) one day prior to chemical application. Four pots with individual seedlings were used for each treatment. Test compounds (2 mg) were dissolved in 2 mL of acetone/methanol (1:1) solvent, forming stock solutions of 1000 ppm test compound. The stock solutions were diluted 5× with 0.025% Tween 20 in H2O to obtain the solution at 200 ppm test compound. A hand-held aspirator-type sprayer was used for spraying a solution to both sides of […] leaves until runoff. Reference plants (solvent check) were sprayed with the diluent only containing 20% by volume of acetone/methanol (1:1) solvent. Treated plants were held in a holding room for three days at approximately 25° C. and ambient relative humidity (RH) prior to grading. Evaluation was conducted by counting the number of live aphids per plant under a microscope. Percent Control was measured by using Abbott's correction formula (W. S. Abbott, “A Method of Computing the Effectiveness of an Insecticide” J. Econ. Entomol. 18 (1925), pp. 265-267) as follows.
Corrected % Control=100*(X−Y)/X • where • X=No. of live aphids on solvent check plants and • Y=No. of live aphids on treated plants
(§1) The results are indicated in the table entitled “Table 5: BAW, CEW, GPA, Scale and WF Results” (See Table Section).

[3] = tested on: San Jose Scale (Quadraspidiotus perniciosus); assay: Bioassay on San Jose Scale, foliar spray on cotton plants; conditions: Diaspidiotus perniciosus, 216 h; 200 ppm foliar spray on cotton plants, live nymphs counted 9 days after infestation, Abbott corrected % control; read-out: Scale @ 200 ppm, % Control (or Mortality) rating
Experimental: Certain molecules disclosed in this document were tested against Scale using procedures described in the following example. In the reporting of the results, the “Table 4: GPA, Scale and WF Rating Table” was used (See Table Section).
Cotton plants (Gossypium hirsutum) grown in 3-inch pots, with 1 small (4-5 cm) true leaves, were used as test substrate. The plants were infested with 200-400 scale crawlers 1-2 hours after chemical application. Four pots with individual plants were used for each treatment. Test compounds (2 mg) were dissolved in 1 mL of acetone solvent, forming stock solutions of 2000 ppm test compound. The stock solutions were diluted 10× with 0.025% Tween 20 in H2O (diluents) to obtain the solution at 200 ppm test compound. A hand-held aspirator-type sprayer was used for spraying a solution to both sides of cotton leaves until runoff. Reference plants (solvent check) were sprayed with the diluent only containing 10% by volume of acetone solvent. Treated plants were held in a holding room for three days at approximately 25° C. and ambient relative humidity (RH) prior to grading. Evaluation was conducted by counting the number of live 2-3 nymphal stage per plant under a microscope 9 days after infestation. Percent Control was measured by using Abbott's correction formula (W. S. Abbott, “A Method of Computing the Effectiveness of an Insecticide” J. Econ. Entomol. 18 (1925), pp. 265-267) as follows.
Corrected % Control=100*(X−Y)/X • where • X=No. of live nymphs on solvent check plants and • Y=No. of live nymphs on treated plants
as §1

[4] = tested on: Sweet Potato Whitefly (WF) (Bemisia tabaci); assay: Bioassay on Sweet Potato Whitefly (WF), foliar spray on cotton plants; conditions: 216 h, 200 ppm foliar spray on cotton plants, graded after 9 days, Abbott corrected % control, read-out: WF @ 200 ppm, % Control (or Mortality) rating
Experimental: Certain molecules disclosed in this document were tested against WF using procedures described in the following example. In the reporting of the results, the “Table 4: GPA, Scale and WF Rating Table” was used (See Table Section).
Cotton plants (Gossypium hirsutum) grown in 3-inch pots, with 1 small (4-5 cm) true leaves, were used as test substrate. The plants were infested with 200-400 whitefly eggs 4-5 days prior to chemical application. Four pots with individual plants were used for each treatment. Test compounds (2 mg) were dissolved in 1 mL of acetone solvent, forming stock solutions of 2000 ppm test compound. The stock solutions were diluted 10× with 0.025% Tween 20 in H2O (diluents) to obtain the solution at 200 ppm test compound. A hand-held aspirator-type sprayer was used for spraying a solution to both sides of cotton leaves until runoff. Reference plants (solvent check) were sprayed with the diluent only containing 10% by volume of acetone solvent. Treated plants were held in a holding room for 9 days at approximately 25° C. and ambient relative humidity (RH) prior to grading. Evaluation was conducted by counting the number of live 3-4 nymphal stage per plant under a microscope. Percent Control was measured by using Abbott's correction formula (W. S. Abbott, “A Method of Computing the Effectiveness of an Insecticide” J. Econ. Entomol. 18 (1925), pp. 265-267) as follows.
Corrected % Control=100*(X−Y)/X • where • X=No. of live nymphs on solvent check plants and • Y=No. of live nymphs on treated plants.
as §1

[5] = second instar larvae on treated artificial diet, five days, 25° C., read-out: BAW, % Control (or Mortality) rating

Row | Structure (SMILES) | mortality ([1]; read-out: BAW, % Control (or Mortality) rating) [%] | mortality at 200 ppm [2] [%] | mortality at 200 ppm [3] [%] | mortality at 200 ppm [4] [%] | mortality [1, 5] [%] | mortality ([1]; 200 ppm, second instar larvae on treated artificial diet, five days, 25° C., read-out: BAW @ 200 ppm, % Control (or Mortality) rating) [%]
1 | FC(F)(F)c1cccc(-c2cnn(-c3cccnc3)c2)n1 [Compound 1, 2-(1-(pyridin-3-yl)-1H-pyrazol-4-yl)-6-(trifluoromethyl)pyridine] | 50 to 100 | 80 to 100 | 80 to 100 | 0 to 80 |  | 
2 | FC(F)(F)c1ccc(-c2cnn(-c3cccnc3)c2)cn1 [Compound 2, 5-(1-(pyridin-3-yl)-1H-pyrazol-4-yl)-2-(trifluoromethyl)pyridine] |  | 80 to 100 | 0 |  | 50 to 100 | 
3 | Cc1nn(-c2cncc(F)c2)cc1-c1cccc(C(F)(F)F)n1 [Compound 3, 2-(1-(5-fluoropyridin-3-yl)-3-methyl-1H-pyrazol-4-yl)-6-(trifluoromethyl)pyridine] |  | 80 to 100 | 80 to 100 |  | 50 to 100 | 
4 | Cc1nn(-c2cccnc2)cc1-c1cccc(C(F)(F)F)n1 [Compound 4] |  | 80 to 100 | 80 to 100 |  | 50 to 100 | 
5 | Cc1nn(-c2cccnc2)cc1-c1ccnc(C(F)(F)F)n1 [Compound 5] |  | 80 to 100 | 80 to 100 |  | 50 to 100 | 
6 | Fc1cncc(-n2cc(-c3cccc(C(F)(F)F)n3)c(Cl)n2)c1 [Compound 7] |  | 80 to 100 | 80 to 100 |  | 50 to 100 | 
7 | Cc1nccc(-c2cn(-c3cccnc3)nc2C)n1 [Compound 8] |  | 80 to 100 | 80 to 100 |  | 50 to 100 | 
8 | COc1ccnc(-c2cn(-c3cccnc3)nc2C)n1 [Compound 9] |  | 80 to 100 | 80 to 100 |  | 50 to 100 | 
9 | Cc1nn(-c2cccnc2)cc1-c1cc(C(F)(F)F)ncn1 [Compound 10] |  | 80 to 100 | 80 to 100 |  | 50 to 100 | 
10 | COc1cc(-c2cn(-c3cccnc3)nc2C)ncn1 [Compound 11] |  | 80 to 100 | 0 to 80 |  |  | 50 to 100
11 | COc1cc(-c2cn(-c3cccnc3)nc2C)nc(OC)n1 [Compound 12] |  | 80 to 100 | 0 to 80 |  | 50 to 100 | 
12 | CSc1nc(-c2cn(-c3cccnc3)nc2C)cc(C(F)(F)F)n1 [Compound 13] |  | 0 to 80 | 0 to 80 |  | 50 to 100 | 
13 | CSc1cccc(-c2cn(-c3cccnc3)nc2C)c1 [Compound 17, 3-(3-methyl-4-(3-(methylthio)phenyl)-1H-pyrazol-1-yl)pyridine] |  | 80 to 100 | 0 to 80 | 0 | 50 to 100 | 
14 | COc1cccc(-c2cn(-c3cccnc3)nc2C)n1 [Compound 19] |  | 80 to 100 | 80 to 100 | 0 to 80 | 50 to 100 | 
15 | Cc1nn(-c2cccnc2)cc1-c1ccc(C(F)(F)F)cn1 [Compound 21] |  | 80 to 100 | 80 to 100 | 80 to 100 | 50 to 100 | 
16 | Cc1nn(-c2cccnc2)cc1-c1cc(C(F)(F)F)ccn1 [Compound 22] |  | 80 to 100 | 80 to 100 | 80 to 100 | 50 to 100 | 
17 | Cc1nn(-c2cccnc2)cc1-c1cccnc1 [Compound 23] |  | 80 to 100 | 80 to 100 | 0 to 80 | 50 to 100 | 
18 | COc1ccc(-c2cn(-c3cccnc3)nc2C)cn1 [Compound 25] |  | 80 to 100 | 80 to 100 | 0 to 80 | 50 to 100 | 
19 | Cc1ccc(-c2cn(-c3cccnc3)nc2C)cn1 [Compound 26] |  | 80 to 100 | 80 to 100 | 80 to 100 | 50 to 100 | 
20 | Cc1cncc(-c2cn(-c3cccnc3)nc2C)c1 [Compound 27] |  | 80 to 100 | 0 to 80 | 80 to 100 | 50 to 100 | 
21 | Cc1ncccc1-c1cn(-c2cccnc2)nc1C [Compound 28] |  | 80 to 100 | 80 to 100 | 0 to 80 | 50 to 100 | 
22 | Cc1nn(-c2cccnc2)cc1-c1ccc(C(F)(F)F)nc1 [Compound 29] |  | 80 to 100 | 80 to 100 | 80 to 100 | 50 to 100 | 
23 | Cc1cc(-c2cn(-c3cccnc3)nc2C)ccn1 [Compound 30] |  | 80 to 100 | 0 to 80 | 0 to 80 | 50 to 100 | 

Source: US20120220453A1, “PESTICIDAL COMPOSTIONS AND PROCESSES RELATED THERETO” (priority 2011, published 2012)
